Laboratory results taken from patent US8741871B2, “Trehalose compound, method for producing same, and pharmaceutical product containing the compound” (priority 2008, dated 2014).

Experiments:
Pseudomonas aeruginosa = assay type: in vivo
[1] = test system: mouse intraperitoneal infiltrating cells; assay: Cell infiltration into mouse abdominal cavity (cell count, Giemsa staining, flow cytometry); conditions: 100 μg/mouse i.p.
rabbit neutrophils = assay type: cell-based
[2] = test system: mouse intraperitoneal macrophages; assay: Measurement of cytokine released from mouse intraperitoneal macrophages (ELISA); assay type: cell-based; conditions: 100 μM test compound, two hours
Description: Mouse intraperitoneal macrophages, a 40 mM test compound solution, and an RPMI 1640 medium were prepared in the same manner as described above.
Macrophages were added to a TC-Plate, so that they became 80% confluent. The macrophages were incubated at 37° C. for 2 hours. Thereafter, the supernatant was discarded, and the cells were then washed with 500 μl of RPMI 1640 medium. This washing operation was repeatedly carried out two times. An emulsion solution of the test compound (final concentration: 100 μM) was allowed to act on the macrophages, and two hours later, the medium was transferred into another Eppendorf tube. […] This supernatant was used as a sample, and the released cytokines were analyzed using ELISA kit (IL-6, TNF-α Quantikine Immunoassay (R & D System (trademark)).

[3] = test system: Welch bacillus (Type A; NTCT8237); assay type: in vivo
Description: As test compounds, 1 mg each of the compound synthesized by the method described in Production Example α-1 and TDCM were weighed. Emulsion solutions of the test compounds (1 mg/ml) were prepared in the same manner as described above.
[…] of Brain Heart Infusion (BHI) (Difco) powders were dissolved in 200 ml of distilled water. 40 ml of the obtained solution (hereinafter this solution is referred to as a “BHI medium”) was withdrawn with a measuring pipette, and it was then added to a 200-ml flask, followed by performing a high-pressure steam sterilization (121° C., 20 minutes). In addition, 5 ml of the BHI medium was added to two screw-top test tubes, and they were then subjected to a high-pressure steam sterilization. Moreover, a glass tube-equipped rubber plug (with a cotton plug) and a glass tube were also subjected to a high-pressure steam sterilization. In a clean bench, an appropriate amount of bacteria for preservation, which had grown on a cooked meat medium, was collected with a sterilized Pasteur pipette, and it was then inoculated on the BHI medium in the aforementioned sterilized screw-top test tube. Subsequently, it was incubated at 37° C. overnight.
In a clean bench, bacteria that had grown in the screw-top test tube (wherein the inside of the […] in which bacteria had grown became clouded, and gas was generated) was transferred into a 200-ml Erlenmeyer flask, which contained 40 ml of BHI medium. A glass tube was inserted into the medium, so as to carry out nitrogen substitution for 10 minutes. Subsequently, the glass tube-equipped rubber plug (with a cotton plug) was equipped in the Erlenmeyer flask (since Welch bacillus generates gas, it is necessary to make an air vent), and incubation was then carried out at 37° C. for 4 to 5 hours. Thereafter, the cultured Welch bacillus was transferred into a centrifuge tube, it was then centrifuged (9000 rpm, 15 minutes), and the supernatant was then removed. 20 ml of sterilized normal saline solution was added to the precipitate, so that the bacteria were suspended therein. The suspension was centrifuged (9000 rpm, 15 minutes), and the supernatant was then removed.
Mice (ICR, 6-week-old) were divided into three groups, and the following test was then carried out.
An emulsion solution containing the test compound, an emulsion solution containing TDCM, or an emulsion solution alone, which was to be used as a control, was intraperitoneally administered in an amount of 100 μg/mouse to a group of four mice (100 μl/mouse, in the case of the emulsion solution alone). Three hours later, Welch bacillus (2.4×10^7 cells/mouse) was intraperitoneally administered to the mice. Thereafter, the condition of the mice was observed.

[4] = test system: Pseudomonas aeruginosa (Fhu-071115 strain); assay type: in vivo
Description: As a test compound, 1 mg of the compound synthesized by the method described in Production Example α-1 was weighed. An emulsion solution of the test compound was prepared in the same manner as described above.
Pseudomonas aeruginosa (Fhu-071115 strain) derived from patients was used, and it was prepared as follows.
L-broth was withdrawn with a 40-ml measuring pipette and was then added to a 200-ml flask, and the flask was then sealed with a sponge plug. At the same time, 5 ml of L-broth was added to each of two other screw-top test tubes. The thus prepared flask and screw-top test tubes were subjected to an autoclave at 121° C. for 20 minutes. After the L-broth medium had been cooled to a room temperature, Pseudomonas aeruginosa, which had been stored in an ultra low temperature freezer, was added into 40 ml of the L-broth the medium in a clean bench. The obtained mixture was shaken in an incubator overnight. Thereafter, the resultant was centrifuged at 9000 rpm for 15 minutes, and the supernatant was then removed. […] This process was carried out three times. Thereafter, 4.5 ml of sterilized normal saline solution was added to the resultant, and the mixture was then blended with the use of a Vortex mixer. The obtained solution was used as a strain stock solution. Using a 1000-fold diluted strain solution, the number of cells was counted with OneCell Counter. Thereafter, the strain stock solution was diluted to a desired concentration, and the thus diluted solution was then used in the subsequent test.
Mice were divided into two groups, and the following two types of experiments were carried out. • (A) The aforementioned emulsion solution containing the test compound (100 μg/mouse) was intraperitoneally administered to a group of three mice (ICR, 5-week-old). Three hours later, Pseudomonas aeruginosa (5.0×10^7 cells/mouse) was intraperitoneally administered to the mice. Thereafter, the condition of the mice was observed. (B) Pseudomonas aeruginosa (2.0×10^7 cells/mouse) was intraperitoneally administered to a group of three mice (ICR, 5-week-old). Three hours later, the aforementioned emulsion solution containing the test compound (100 μg/mouse) was intraperitoneally administered to the mice. Thereafter, the condition of the mice was observed.

[5] = twenty-four hours after administration, flow cytometry

Compound: CCCCCCCCCC(CCCCCCCCC)CC(=O)OCC1O[C@H](O[C@H]2OC(COC(=O)CC(CCCCCCCCC)CCCCCCCCC)[C@@H](O)C(O)C2O)C(O)C(O)[C@@H]1O (stereo partly drawn) [Example 9, 6,6′-bis-O-(3-nonyldodecanoyl)-α,α′-trehalose]
- lethality of Pseudomonas aeruginosa-infected mice, post-administration (Pseudomonas aeruginosa; 100 μg/mouse i.p. three hours after infection with Pseudomonas aeruginosa, FIG. 18): significantly suppressed
- lethality of Pseudomonas aeruginosa-infected mice, pre-administration (Pseudomonas aeruginosa; pre-administration 100 μg/mouse i.p., twenty-four hours later 3.0×10^10 CFU/mL Pseudomonas aeruginosa i.p., FIG. 17): significantly suppressed
- infiltrating cells in the abdominal cavity of mice over time ([1]; 2 hours or 24 hours after administration, FIG. 12): an increase in infiltrating cells was observed time-dependently
- abundance ratio of the CD11b-positive cells and CD4-positive cells compared with vehicle [1, 5]: hardly changed
- total number of CD11b-positive cells, CD4-positive cells and CD8-positive cells compared with vehicle [1, 5]: 15 to 20 times
- abundance ratio of the CD8-positive cells compared with vehicle ([1]; twenty-four hours after administration, flow cytometry, FIGS. 13 to 15): 2 to 3 times
- number of infiltrating cells in mouse abdominal cavity compared with vehicle ([1]; twenty-four hours later, FIG. 12): 15 to 20 times

Compound: CCCCCCCCCCC(CCCCCCCCCC)C(=O)OCC1O[C@H](O[C@H]2OC(COC(=O)C(CCCCCCCCCC)CCCCCCCCCC)[C@@H](O)C(O)C2O)C(O)C(O)[C@@H]1O (stereo partly drawn) [Example 1, 6,6′-bis-O-(2-decyldodecanoyl)-α,α′-trehalose]
- phagocytic ability of rabbit neutrophils, activity compared with TDCM (rabbit neutrophils): approximately 2 times
- amount of IL-6 released from mouse intraperitoneal macrophages ([2]; vehicle approximately 15 pg/ml): approximately 200 pg/ml
- amount of TNF-α released from mouse intraperitoneal macrophages ([2]; vehicle approximately 80 pg/ml): approximately 1000 pg/ml
- Number of surviving mice/number of treated mice, 2 hours later ([3]; 100 μg/mouse i.p. three hours before Welch bacillus 2.4×10^7 cells/mouse i.p., 2 hours later): 4/4
- Number of surviving mice/number of treated mice, 6 hours later ([3]; 100 μg/mouse i.p. three hours before Welch bacillus 2.4×10^7 cells/mouse i.p., 6 hours later): 4/4
- Number of surviving mice/number of treated mice, 12 hours later ([3]; 100 μg/mouse i.p. three hours before Welch bacillus 2.4×10^7 cells/mouse i.p., 12 hours later): 4/4
- Number of surviving mice/number of treated mice, 24 hours later ([3]; 100 μg/mouse i.p. three hours before Welch bacillus 2.4×10^7 cells/mouse i.p., 24 hours later): 3/4
- Number of surviving mice/number of treated mice, 48 hours later ([3]; 100 μg/mouse i.p. three hours before Welch bacillus 2.4×10^7 cells/mouse i.p., 48 hours later): 3/4
- mice that escaped death in Welch bacillus lethal models ([3]; 100 μg/mouse i.p., text summary of Table 4): three out of the four mice
- Number of surviving mice/number of treated mice, 2 hours later (Group A) ([4]; Group A: pre-administration 100 μg/mouse i.p., three hours later Pseudomonas aeruginosa 5.0×10^7 cells/mouse i.p., 2 hours later): 3/3
- Number of surviving mice/number of treated mice, 4 hours later (Group A) ([4]; Group A: pre-administration 100 μg/mouse i.p., three hours later Pseudomonas aeruginosa 5.0×10^7 cells/mouse i.p., 4 hours later): 3/3
- Number of surviving mice/number of treated mice, 15 hours later (Group A) ([4]; Group A: pre-administration 100 μg/mouse i.p., three hours later Pseudomonas aeruginosa 5.0×10^7 cells/mouse i.p., 15 hours later): 2/3
- Number of surviving mice/number of treated mice, 24 hours later (Group A) ([4]; Group A: pre-administration 100 μg/mouse i.p., three hours later Pseudomonas aeruginosa 5.0×10^7 cells/mouse i.p., 24 hours later): 2/3
- Number of surviving mice/number of treated mice, 48 hours later (Group A) ([4]; Group A: pre-administration 100 μg/mouse i.p., three hours later Pseudomonas aeruginosa 5.0×10^7 cells/mouse i.p., 48 hours later): 2/3
- Number of surviving mice/number of treated mice, 2 hours later (Group B) ([4]; Group B: Pseudomonas aeruginosa 2.0×10^7 cells/mouse i.p., three hours later test compound 100 μg/mouse i.p., 2 hours later): 3/3
- Number of surviving mice/number of treated mice, 4 hours later (Group B) ([4]; Group B: Pseudomonas aeruginosa 2.0×10^7 cells/mouse i.p., three hours later test compound 100 μg/mouse i.p., 4 hours later): 3/3
- Number of surviving mice/number of treated mice, 15 hours later (Group B) ([4]; Group B: Pseudomonas aeruginosa 2.0×10^7 cells/mouse i.p., three hours later test compound 100 μg/mouse i.p., 15 hours later): 3/3
- Number of surviving mice/number of treated mice, 24 hours later (Group B) ([4]; Group B: Pseudomonas aeruginosa 2.0×10^7 cells/mouse i.p., three hours later test compound 100 μg/mouse i.p., 24 hours later): 1/3
- Number of surviving mice/number of treated mice, 48 hours later (Group B) ([4]; Group B: Pseudomonas aeruginosa 2.0×10^7 cells/mouse i.p., three hours later test compound 100 μg/mouse i.p., 48 hours later): 1/3
